# According to ChEMBL document CHEMBL4814071, “Synthesis and antibacterial study of cell-penetrating peptide conjugated trifluoroacetyl and thioacetyl lysine modified peptides” (Eur J Med Chem, 2021):
# Structures can show the parent of a compound that is named as a salt. Active and inactive are the calls of the source. No cut-off for these calls is given here. *1 amine or outer side, *2 acyl side, *3 side chain or, on linkers, in order; H or OH if unused. Where a SMILES comes first, the peptide text is derived from it. Bridges are numbered along the chain shown (N, C = ends). Side-chain parts run from the residue outwards. [ ]: non-standard residue; d: D form. The star is where a group is joined. NH(2-Me-phenyl) = Cc1ccccc1N*; X1 = CC[C@H](C)CCCCC(=O)*; Dab = NCC[C@H](N)C(=O)O; CO = O=C([*:1])[*:2]; Tfa = O=C(C(F)(F)F)*
# Key:
# Staphylococcus aureus [1] = assay: Antibacterial activity against Staphylococcus aureus assessed as reduction in microbial growth after 24 hrs by microplate reader method; type: functional
# Escherichia coli [2] = assay: Antibacterial activity against Escherichia coli assessed as reduction in microbial growth after 24 hrs by microplate reader method; type: functional
# Pseudomonas aeruginosa [3] = assay: Antibacterial activity against Pseudomonas aeruginosa assessed as reduction in microbial growth after 24 hrs by microplate reader method; type: functional
# Staphylococcus aureus [4] = assay: Synergistic antibacterial activity against Staphylococcus aureus assessed as fractional inhibitory concentration index incubated for 24 hrs in presence of streptomycin; type: functional
# Lipid bilayer [5] = assay: Binding affinity to bacterial inner membrane mimic POPE/POPG (3:1) LUVs assessed as increase in intensity by one-dimensional 19F NMR based analysis
# Lipid bilayer [6] = assay: Binding affinity to mammalian membrane mimic DOPC/40% cholesterol assessed as calcein leakage at 20 uM by fluorescence based assay; type: ADME
# Pseudomonas aeruginosa [7] = assay: Potentiation of polymyxin B-induced antibacterial activity against Pseudomonas aeruginosa assessed as polymyxin B MIC incubated for 24 hrs by microplate reader method; type: functional
# Staphylococcus aureus [8] = assay: Potentiation of streptomycin-induced antibacterial activity against Staphylococcus aureus assessed as streptomycin MIC incubated for 24 hrs by microplate reader method; type: functional
# Escherichia coli [9] = assay: Potentiation of polymyxin B-induced antibacterial activity against Escherichia coli assessed as polymyxin B MIC incubated for 24 hrs by microplate reader method; type: functional
# [10] = target: NAD-dependent histone deacetylase SIR2 (Saccharomyces cerevisiae S288c) (UniProt P06700); assay: Inhibition of yeast sirtuin2-mediated Ura3 transcriptional silencing at telomeric locus assessed as yeast killing at 50 uM incubated for 72 hrs in presence of FOA by absorbance based analysis
# Sequence of NAD-dependent histone deacetylase SIR2 (Saccharomyces cerevisiae S288c) (P06700 whole entry): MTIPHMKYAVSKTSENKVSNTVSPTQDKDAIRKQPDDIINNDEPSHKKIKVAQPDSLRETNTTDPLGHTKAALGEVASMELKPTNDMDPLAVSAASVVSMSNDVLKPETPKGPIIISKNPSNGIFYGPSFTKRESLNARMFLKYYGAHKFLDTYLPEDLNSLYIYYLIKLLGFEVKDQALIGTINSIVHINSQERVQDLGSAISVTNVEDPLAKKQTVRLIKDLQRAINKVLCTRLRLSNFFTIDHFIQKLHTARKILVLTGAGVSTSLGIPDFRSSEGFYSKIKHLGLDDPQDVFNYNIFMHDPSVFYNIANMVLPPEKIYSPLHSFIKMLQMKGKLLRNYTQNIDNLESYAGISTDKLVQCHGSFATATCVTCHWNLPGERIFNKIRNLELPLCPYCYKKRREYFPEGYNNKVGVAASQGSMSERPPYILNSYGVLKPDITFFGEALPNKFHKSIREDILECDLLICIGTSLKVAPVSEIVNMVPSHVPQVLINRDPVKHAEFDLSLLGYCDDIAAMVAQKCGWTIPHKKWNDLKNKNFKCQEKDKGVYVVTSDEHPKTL
# Escherichia coli [11] = assay: Antibacterial activity against Escherichia coli assessed as reduction in microbial growth after 24 hrs in presence of polymyxin B by microplate reader method; type: functional
# Staphylococcus aureus [12] = assay: Antibacterial activity against Staphylococcus aureus assessed as reduction in microbial growth after 24 hrs in presence of streptomycin by microplate reader method; type: functional
# Staphylococcus aureus [13] = assay: Antibiofilm activity against Staphylococcus aureus assessed as biofilm eradication incubated for 24 hrs by crystal violet staining assay; type: functional
# Escherichia coli [14] = assay: Antibiofilm activity against Escherichia coli assessed as biofilm eradication incubated for 24 hrs by crystal violet staining assay; type: functional
# Staphylococcus aureus [15] = assay: Antibiofilm activity against Staphylococcus aureus assessed as inhibition of biofilm formation incubated for 48 hrs by crystal violet staining assay; type: functional
# Escherichia coli [16] = assay: Antibiofilm activity against Escherichia coli assessed as as inhibition of biofilm formation incubated for 48 hrs by crystal violet staining assay; type: functional
# Cell membrane [17] = assay: Disruption of membrane integrity in Escherichia coli at 2 times MIC measured after 20 mins by SEM analysis
# Cell membrane [18] = assay: Disruption of membrane integrity in Staphylococcus aureus at 2 times MIC measured after 20 mins by SEM analysis
# Escherichia coli [19] = assay: Synergistic antibacterial activity against Escherichia coli assessed as fractional inhibitory concentration index incubated for 24 hrs in presence of Polymyxin B; type: functional
# Pseudomonas aeruginosa [20] = assay: Synergistic antibacterial activity against Pseudomonas aeruginosa assessed as fractional inhibitory concentration index incubated for 24 hrs in presence of Polymyxin B; type: functional
# Lipid bilayer [21] = assay: Binding affinity to bacterial inner membrane mimic DOPE/DOPG (3:1) large unilamellar vesicles assessed as calcein leakage at 20 uM by fluorescence based assay
# [22] = Hemolytic activity against mouse RBC at 1000 uM measured after 1 hr by microplate reader analysis; type: cell-based, Erythrocyte; conditions: mouse red blood cells (erythrocytes), read-out: Activity
# HeLa = assay: Cytotoxicity against human HeLa cells assessed as reduction in cell viability incubated for 48 hrs by MTT assay; type: cell-based
# BE(2)-C = assay: Cytotoxicity against human BE(2)-C cells assessed as reduction in cell viability incubated for 48 hrs by MTT assay; type: cell-based
# Staphylococcus aureus [23] = assay: Antibiofilm activity against Staphylococcus aureus assessed as biofilm eradication at 2XMBEC incubated for 12 hrs by SYTO9/PI staining based microscopic analysis; type: functional, organism-based
# Escherichia coli [24] = assay: Antibiofilm activity against Escherichia coli assessed as biofilm eradication at 2XMBEC incubated for 12 hrs by SYTO9/PI staining based microscopic analysis; type: functional, organism-based
# [25] = Inhibition of transcriptional machinery using Puc19-lacCONS plasmid DNA and Escherichia coli RNA polymerase-sigma70 holoenzyme at 40 uM incubated for 35 mins followed by NTP addition for 30 mins by spectrofluorometer analysis; type: functional; conditions: time 65.0 min
# Pseudomonas aeruginosa [26] = assay: Antibacterial activity against Pseudomonas aeruginosa assessed as reduction in microbial growth after 24 hrs in presence of polymyxin B by microplate reader method; type: functional
# Staphylococcus aureus [27] = assay: Potentiation of streptomycin-induced antibacterial activity against Staphylococcus aureus assessed as fold change in streptomycin MIC incubated for 24 hrs by microplate reader method; type: functional
# Cell membrane [28] = assay: Disruption of membrane integrity in Escherichia coli at 2 times MIC by TEM analysis
# Lipid bilayer [29] = assay: Binding affinity to bacterial inner membrane mimic DOPE/DOPG (3:1) large unilamellar vesicles assessed as calcein leakage at 2.5 uM by fluorescence based assay
# Cell membrane [30] = assay: Disruption of membrane integrity in Staphylococcus aureus at 2 times MIC by TEM analysis
# Cell membrane [31] = assay: Disruption of membrane integrity in Escherichia coli assessed as cellular leakage at 2 times MIC by TEM analysis
# [32] = Inhibition of transcriptional machinery using Puc19-lacCONS plasmid DNA and Escherichia coli RNA polymerase-sigma70 holoenzyme at 10 uM incubated for 35 mins followed by NTP addition for 30 mins by spectrofluorometer analysis; type: functional; conditions: time 65.0 min
SMILES,MIC (Staphylococcus aureus [1]) [µM],MIC (Escherichia coli [2]) [µM],MIC (Pseudomonas aeruginosa [3]) [µM],fractional inhibitory concentration index (FICI) (Staphylococcus aureus [4]),Activity (Lipid bilayer [5]),Activity (Lipid bilayer [6]) [%],MIC (Pseudomonas aeruginosa [7]) [µM],MIC (Staphylococcus aureus [8]) [µM],MIC (Escherichia coli [9]) [µM],inhibition [10],MIC (Escherichia coli [11]) [µM],MIC (Staphylococcus aureus [12]) [µM],MBEC (Staphylococcus aureus [13]) [µM],MBEC (Escherichia coli [14]),MBIC (Staphylococcus aureus [15]) [µM],MBIC (Escherichia coli [16]),Activity (Cell membrane [17]),Activity (Cell membrane [18]),fractional inhibitory concentration index (FICI) (Escherichia coli [19]),fractional inhibitory concentration index (FICI) (Pseudomonas aeruginosa [20]),other results
CC(=O)N[C@@H](Cc1ccc(O)cc1)C(=O)NCC(=O)N[C@@H](CCCNC(=N)N)C(=O)N[C@@H](CCCCN)C(=O)N[C@@H](CCCCN)C(=O)N[C@@H](CCCNC(=N)N)C(=O)N[C@@H](CCCNC(=N)N)C(=O)N[C@@H](CCC(N)=O)C(=O)N[C@@H](CCCNC(=N)N)C(=O)N[C@@H](CCCNC(=N)N)C(=O)N[C@@H](CCCNC(=N)N)C(=O)O,1.5,50,> 100,–,–,–,–,–,–,–,–,–,–,–,–,–,–,–,–,–,–
CN[C@@H]1[C@H](O[C@H]2[C@H](O[C@H]3[C@H](O)[C@@H](O)[C@H](N=C(N)N)[C@@H](O)[C@@H]3N=C(N)N)O[C@@H](C)[C@]2(O)C=O)O[C@@H](CO)[C@H](O)[C@H]1O [STREPTOMYCIN],2.2,–,–,–,–,–,–,–,–,–,–,–,–,–,–,–,–,–,–,–,–
CC[C@H](C)CCCCC(=O)N[C@@H](CCN)C(=O)N[C@H](C(=O)N[C@@H](CCN)C(=O)N[C@H]1CCNC(=O)[C@H]([C@@H](C)O)NC(=O)[C@H](CCN)NC(=O)[C@H](CCN)NC(=O)[C@H](CC(C)C)NC(=O)[C@@H](Cc2ccccc2)NC(=O)[C@H](CCN)NC1=O)[C@@H](C)O (X1-[Dab]T[Dab][Dab][Dab][dF]L[Dab][Dab]T; lactam 4-C),–,0.09,0.15,–,–,–,–,–,–,–,–,–,–,–,–,–,–,–,–,–,–
CC(=O)N[C@@H](CCCCN)C(=O)NCC(=O)N[C@@H](CC(C)C)C(=O)N[C@@H](CCCNC(=N)N)C(=O)N[C@@H](CCCCNC(=O)C(F)(F)F)C(=O)N[C@@H](Cc1ccccc1)C(=O)NCC(=O)N[C@@H](C)C(=O)N[C@@H](CCCCNC(=O)C(F)(F)F)C(=O)N[C@@H](CCCNC(=N)N)C(=O)N[C@@H](Cc1cnc[nH]1)C(=O)N[C@@H](CCCNC(=N)N)C(=O)N[C@@H](CS)C(N)=O (Ac-KGLRK(Tfa)FGAK(Tfa)RHRC-NH2),1.5,125,> 250,0.3,Active,< 20,0.1,0.38,0.05,Active,7.81,0.63,12.5,inactive,6.3,inactive,inactive,inactive,0.19,0.36,"Activity (Lipid bilayer [21]): 70%; hemolysis at 1 h, 1000 µM [22]: < 5%; IC50 (HeLa): 84.4 µM; IC50 (BE(2)-C): 81.6 µM; Activity (Staphylococcus aureus [23]): Active; Activity (Escherichia coli [24]): Active; inhibition [25]: Active; MIC (Pseudomonas aeruginosa [26]): 25 µM; fold change (FC) (Staphylococcus aureus [27]): 6"
CC(=O)N[C@@H](Cc1ccc(O)cc1)C(=O)NCC(=O)N[C@@H](CCCNC(=N)N)C(=O)N[C@@H](CCCCN)C(=O)N[C@@H](CCCCN)C(=O)N[C@@H](CCCNC(=N)N)C(=O)N[C@@H](CCCNC(=N)N)C(=O)N[C@@H](CCC(N)=O)C(=O)N[C@@H](CCCNC(=N)N)C(=O)N[C@@H](CCCNC(=N)N)C(=O)N[C@@H](CCCNC(=N)N)C(=O)NCC(=O)NCC(=O)NCC(=O)N[C@@H](CCCCN)C(=O)NCC(=O)N[C@@H](CC(C)C)C(=O)N[C@@H](CCCNC(=N)N)C(=O)N[C@@H](CCCCNC(=O)Nc1ccccc1C)C(=O)N[C@@H](Cc1ccccc1)C(=O)NCC(=O)N[C@@H](C)C(=O)N[C@@H](CCCCN)C(=O)N[C@@H](CCCNC(=N)N)C(=O)N[C@@H](Cc1cnc[nH]1)C(=O)N[C@@H](CCCNC(=N)N)C(=O)N[C@@H](CS)C(=O)O (Ac-YGRKKRRQRRRGGGKGLRK([CO-NH(2-Me-phenyl)])FGAKRHRC-OH),0.2,1.5,25,–,–,–,–,–,–,–,–,–,–,–,–,–,–,–,–,–,–
CC(=O)N[C@@H](Cc1ccc(O)cc1)C(=O)NCC(=O)N[C@@H](CCCNC(=N)N)C(=O)N[C@@H](CCCCN)C(=O)N[C@@H](CCCCN)C(=O)N[C@@H](CCCNC(=N)N)C(=O)N[C@@H](CCCNC(=N)N)C(=O)N[C@@H](CCC(N)=O)C(=O)N[C@@H](CCCNC(=N)N)C(=O)N[C@@H](CCCNC(=N)N)C(=O)N[C@@H](CCCNC(=N)N)C(=O)NCC(=O)NCC(=O)NCC(=O)N[C@@H](CCCCN)C(=O)NCC(=O)N[C@@H](CC(C)C)C(=O)N[C@@H](CCCNC(=N)N)C(=O)N[C@@H](CCCCNC(=O)C(F)(F)F)C(=O)N[C@@H](Cc1ccccc1)C(=O)NCC(=O)N[C@@H](C)C(=O)N[C@@H](CCCCNC(=O)C(F)(F)F)C(=O)N[C@@H](CCCNC(=N)N)C(=O)N[C@@H](Cc1cnc[nH]1)C(=O)N[C@@H](CCCNC(=N)N)C(=O)N[C@@H](CS)C(N)=O (Ac-YGRKKRRQRRRGGGKGLRK(Tfa)FGAK(Tfa)RHRC-NH2),0.2,1.5,25,0.22,Active,< 20,0.05,0.38,0.1,Active,0.63,0.05,3.2,62.5 µM,0.8,15.6 µM,Active,Active,0.73,0.3,"Activity (Cell membrane [28]): Active; Activity (Lipid bilayer [29]): 90%; Activity (Lipid bilayer [21]): Active; hemolysis at 1 h, 1000 µM [22]: < 5%; IC50 (HeLa): 31.6 µM; IC50 (BE(2)-C): 23.4 µM; Activity (Staphylococcus aureus [23]): Active; Activity (Escherichia coli [24]): Active; Activity (Cell membrane [30]): Active; Activity (Cell membrane [31]): Active; inhibition [32]: 100%; MIC (Pseudomonas aeruginosa [26]): 6.25 µM; fold change (FC) (Staphylococcus aureus [27]): 6"
